# Results from patent US10537725B2, “Ultrasound-assisted convection enhanced delivery of compounds in vivo with a transducer cannula assembly” (CORNELL UNIVERSITY, priority 2010, dated 2020).
# Experiment: Evans blue dye volume distribution in rat brain after CED or ultrasound-assisted CED (UCED) infusion into the caudate
# Assay type: in vivo, Sprague-Dawley rats
# Conditions: for total distribution volume of EBD: 30 min
# Description: A total of 40 Sprague-Dawley rats (350 to 450 g) were divided into two equal groups and further divided into four equal subgroups (n=5 in each). The rats were anesthetized, secured into ear bars on a stereotaxic apparatus, and a craniotomy was performed. The caudate of the rat brain was infused with 0.25 wt % Evans blue dye (EBD) in Phosphate-Buffered Saline (PBS) at two different infusion rates of 0.25 μL/min for group 1, and 0.5 μL/min for group 2. […] Using the TCA without ultrasound, the four control subgroups were infused without and with microbubbles (CED and CED+MB). The four UCED subgroups (UCED and UCED+MB) followed the same protocol with the addition of simultaneous continuous wave 1.34 MHz ultrasound operating at a total acoustic power of 0.11+/−0.005 W and peak spatial intensity at the cannula tip of I=49.7 mW/cm^2. Frozen sectioning and histology were performed on the brains, and infusion distribution was three-dimensionally reconstructed using MatLab® analysis. Hematoxylin and Eosin (H&E) staining was used to assess tissue damage and morphological changes to the brain. The application of UCED and UCED+MB improved EBD total volumetric distribution by 2.24 to 3.25 and 1.16 to 1.70 times, respectively (p<0.001). On gross and histological examination, no ultrasound or microbubble related damage to the brain tissue was found. The TCA and battery-powered ultrasound device show promise to improve the distribution of infusate during CED in clinical practice.
# Rats were anesthetized and euthanized by procedures approved by the Institutional Animal Care and Use Committee (IACUC) at Cornell University. A total of 40 Sprague-Dawley rats (350 to 450 g) were divided into two groups (designated Groups 1 and 2) with four subgroups (5 rats in each subgroup). Animals were anesthetized by inhalation of isoflurane gas and secured in a stereotaxic frame. The head was shaved, 0.5 ml of bupivicaine was applied under the skin as a local anesthetic and an incision was made in the skin along the dorsal midline of the skull. A small craniotomy (6-7 mm diameter) was made over the left side of the exposed skull using a dental drill. The TCA was guided using a micromanipulator to +0 mm anterior, +3 mm lateral and −5.5 mm ventral from bregma, lowered at 0.25 mm per second into the caudate of the rat brain and allowed to equilibrate for two minutes. 1-2 ml of artificial cerebral spinal fluid (aCSF) and a gel-foam dam was used to couple acoustic energy from the face of the TCA into the rodent brain. The TCA was powered on with the pocket-sized ultrasound system at the +/−11.1 V setting and infusion began.
# For each rat, the entire experiment lasted a total of 30 min. The control subgroups of CED and CED+MB (n=5 in each) were infused using the TCA with no ultrasound therapy for 30 min. For the experimental subgroups of UCED and UCED+MB (n=5 in each), infusion and ultrasound exposure at an acoustic power of 0.11+/−0.005 W, and TCA face intensity of 0.095 W/cm^2 which corresponded to a cannula tip intensity of 0.0497 W/cm^2 for 30 min was applied simultaneously. Filtered Evan's blue dye (EBD) 0.25 wt % in phosphate buffered saline (PBS) without or with 5×10^5 stabilized microbubbles per μL with median diameter of 2.5 μm (Targestar™-P, Targeson Inc.) was infused using a microinfusion pump (Worker Bee™, Bioanalytical Systems, Inc.).
# The starting infusion flow rate for the experiments of Group 1 was 0.05 μL/min for 5 min; the infusion flow rate was then increased to 0.1 μL/min for an additional 5 min, to a final flow rate of 0.25 μL/min for 20 min. The starting infusion flow rate of Group 2 was 0.1 μL/min for 5 min; the infusion flow rate was then increased to 0.25 μL/min for an additional 5 min, to a final flow rate of 0.5 μL/min for 20 min.
# After 30 min of simultaneous infusion and ultrasound therapy the experiment was stopped. The TCA was left in the tissue for 1-2 min before being removed while euthanasia via cardiac urethane injection was performed. […]
smiles,measurement,setting,value
"Cc1cc(-c2ccc(/N=N/c3ccc4c(S(=O)(=O)O)cc(S(=O)(=O)O)c(N)c4c3O)c(C)c2)ccc1/N=N/c1ccc2c(S(=O)(=O)O)cc(S(=O)(=O)O)c(N)c2c1O [EBD, Evans blue dye]",total distribution volume of EBD,"group 1, 0.25 μL/min infusion, left caudate, CED",13.6 mm^3
same,total distribution volume of EBD,"group 1, 0.25 μL/min infusion, left caudate, CED+MB",15.9 mm^3
same,total distribution volume of EBD,"group 1, 0.25 μL/min infusion, left caudate, UCED",33.1 mm^3
same,total distribution volume of EBD,"group 1, 0.25 μL/min infusion, left caudate, UCED+MB",27.0 mm^3
same,total distribution volume of EBD,"group 1, 0.25 μL/min infusion, left hemisphere, CED (no ultrasound)",20.6 mm^3
same,total distribution volume of EBD,"group 1, 0.25 μL/min infusion, left hemisphere, CED+MB (microbubbles, no ultrasound)",19.7 mm^3
same,total distribution volume of EBD,"group 1, 0.25 μL/min infusion, left hemisphere, UCED (1.34 MHz ultrasound)",46.3 mm^3
same,total distribution volume of EBD,"group 1, 0.25 μL/min infusion, left hemisphere, UCED+MB",26.9 mm^3
same,increase of EBD distribution volume,"group 1, 0.25 μL/min, left caudate, UCED compared to CED",2.44 ×
same,increase of EBD distribution volume,"group 1, 0.25 μL/min, left caudate, UCED+MB compared to CED+MB",1.7 ×
same,increase of EBD distribution volume,"group 1, 0.25 μL/min, left hemisphere, UCED compared to CED",2.24 ×
same,increase of EBD distribution volume,"group 1, 0.25 μL/min, left hemisphere, UCED+MB compared to CED+MB",1.37 ×
same,total distribution volume of EBD,"group 2, 0.5 μL/min infusion, left caudate, UCED",70.2 mm^3
same,total distribution volume of EBD,"group 2, 0.5 μL/min infusion, left caudate, UCED+MB",30.2 mm^3
same,total distribution volume of EBD,"group 2, 0.5 μL/min infusion, left hemisphere, CED",37.4 mm^3
same,total distribution volume of EBD,"group 2, 0.5 μL/min infusion, left hemisphere, CED+MB",31.9 mm^3
same,total distribution volume of EBD,"group 2, 0.5 μL/min infusion, left hemisphere, UCED",111 mm^3
same,total distribution volume of EBD,"group 2, 0.5 μL/min infusion, left hemisphere, UCED+MB",37.1 mm^3
same,increase of EBD distribution volume,"group 2, 0.5 μL/min, left caudate, UCED compared to CED",3.25 ×
same,increase of EBD distribution volume,"group 2, 0.5 μL/min, left caudate, UCED+MB compared to CED+MB",1.54 ×
same,increase of EBD distribution volume,"group 2, 0.5 μL/min, left hemisphere, UCED compared to CED",2.96 ×
same,increase of EBD distribution volume,"group 2, 0.5 μL/min, left hemisphere, UCED+MB compared to CED+MB",1.16 ×
